Laboratory results: ChEMBL document CHEMBL6114995, “Discovery of novel imidazo[1,2-b]pyridazine derivatives as potent covalent inhibitors of CDK12/13” (Eur J Med Chem, 2025)
Each block holds one compound with its values, some of them ahead of it. Calls of active or inactive are those of the source. The rule behind the calls is not given here.

Key:
MDA-MB-231 [1] = experiment: cells; conditions: Homo sapiens, MDA-MB-231, 96 h
Description: Antiproliferative activity against human MDA-MB-231 cells assessed as inhibition of cell growth incubated for 96 hrs cellcounting-lite analysis

MDA-MB-468 = experiment: cells; conditions: Homo sapiens, MDA-MB-468, 96 h
Description: Antiproliferative activity against human MDA-MB-468 cells assessed as inhibition of cell growth incubated for 96 hrs cellcounting-lite analysis

MDA-MB-231 [2] = experiment: Effect on BRCA1 mRNA level in human MDA-MB-231 cells at 50 nM incubated for 6 hrs by qRT-PCR analysis; assay type: functional, cell-based
MDA-MB-231 [3] = experiment: Effect on FANCI mRNA level in human MDA-MB-231 cells at 50 nM incubated for 6 hrs by qRT-PCR analysis; assay type: functional, cell-based
MDA-MB-231 [4] = experiment: Effect on FANCD2 mRNA level in human MDA-MB-231 cells at 50 nM incubated for 6 hrs by qRT-PCR analysis; assay type: functional, cell-based
MDA-MB-231 [5] = experiment: Effect on RAD51 mRNA level in human MDA-MB-231 cells at 50 nM incubated for 6 hrs by qRT-PCR analysis; assay type: functional, cell-based
MDA-MB-231 [6] = experiment: Effect on SMARCC1 mRNA level in human MDA-MB-231 cells at 50 nM incubated for 6 hrs by qRT-PCR analysis; assay type: functional, cell-based
MDA-MB-231 [7] = experiment: Effect on ATM mRNA level in human MDA-MB-231 cells at 50 nM incubated for 6 hrs by qRT-PCR analysis; assay type: functional, cell-based
MDA-MB-231 [8] = experiment: Effect on ATR mRNA level in human MDA-MB-231 cells at 50 nM incubated for 6 hrs by qRT-PCR analysis; assay type: functional, cell-based
MDA-MB-231 [9] = experiment: Effect on ATM level in human MDA-MB-231 cells at 50 nM incubated for 24 hrs by Western blot analysis; assay type: functional, cell-based
MDA-MB-231 [10] = experiment: Effect on cleaved PARP level in human MDA-MB-231 cells at 50 nM incubated for 24 hrs by Western blot analysis; assay type: functional, cell-based
MDA-MB-231 [11] = experiment: Effect on RAD51 level in human MDA-MB-231 cells at 50 nM incubated for 24 hrs by Western blot analysis; assay type: functional, cell-based
MDA-MB-231 [12] = experiment: Effect on alpha-tubulin level in human MDA-MB-231 cells at 50 nM incubated for 24 hrs by Western blot analysis; assay type: functional, cell-based
[13] = molecular target: Protein cereblon/Cyclin-K (Homo sapiens, UniProt O75909+Q96SW2); experiment: PROTAC activity at CRBN/Cyclin K in human MDA-MB-231 cells assessed as reduction in cyclin K level incubated for 4 hrs by Western blot analysis; assay type: cell-based
Protein cereblon/Cyclin-K, sequence (O75909 whole entry): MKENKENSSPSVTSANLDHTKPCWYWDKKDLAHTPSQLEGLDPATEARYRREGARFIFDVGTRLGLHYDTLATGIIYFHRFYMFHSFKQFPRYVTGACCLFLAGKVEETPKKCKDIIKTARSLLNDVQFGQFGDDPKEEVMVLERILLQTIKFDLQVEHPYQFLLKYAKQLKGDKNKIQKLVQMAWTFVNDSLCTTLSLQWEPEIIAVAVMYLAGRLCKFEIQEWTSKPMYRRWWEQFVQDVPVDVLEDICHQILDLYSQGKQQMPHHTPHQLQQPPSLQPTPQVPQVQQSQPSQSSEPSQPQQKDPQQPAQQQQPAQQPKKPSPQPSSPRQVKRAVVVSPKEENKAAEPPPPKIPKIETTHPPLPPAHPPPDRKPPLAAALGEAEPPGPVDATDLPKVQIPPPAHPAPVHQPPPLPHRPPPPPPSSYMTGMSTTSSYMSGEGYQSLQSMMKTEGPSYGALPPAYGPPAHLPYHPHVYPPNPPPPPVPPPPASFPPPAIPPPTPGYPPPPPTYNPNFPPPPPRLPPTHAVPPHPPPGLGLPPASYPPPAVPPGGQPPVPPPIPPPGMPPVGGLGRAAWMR
Protein cereblon/Cyclin-K, sequence (Q96SW2 whole entry): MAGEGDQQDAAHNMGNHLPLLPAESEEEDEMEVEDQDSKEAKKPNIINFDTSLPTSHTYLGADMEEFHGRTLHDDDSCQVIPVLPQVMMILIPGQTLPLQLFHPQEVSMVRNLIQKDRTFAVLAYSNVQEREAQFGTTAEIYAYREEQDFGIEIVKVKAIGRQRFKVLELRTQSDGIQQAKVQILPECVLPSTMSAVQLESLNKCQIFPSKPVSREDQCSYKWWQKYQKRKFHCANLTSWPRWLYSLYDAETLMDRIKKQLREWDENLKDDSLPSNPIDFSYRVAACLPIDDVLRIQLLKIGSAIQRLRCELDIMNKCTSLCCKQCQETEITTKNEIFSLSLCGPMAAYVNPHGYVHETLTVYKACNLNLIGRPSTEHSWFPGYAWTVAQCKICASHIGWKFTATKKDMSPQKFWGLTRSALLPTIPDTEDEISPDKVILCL

[14] = molecular target: T1, Cyclin-dependent kinase 12 (Homo sapiens, UniProt Q9NYV4); experiment: Inhibition of CDK12 (unknown origin) using GSRTPMY-NH2 as substrate in presence of ATP by ADP-glo assay
Target sequence in this assay (Q9NYV4 whole entry): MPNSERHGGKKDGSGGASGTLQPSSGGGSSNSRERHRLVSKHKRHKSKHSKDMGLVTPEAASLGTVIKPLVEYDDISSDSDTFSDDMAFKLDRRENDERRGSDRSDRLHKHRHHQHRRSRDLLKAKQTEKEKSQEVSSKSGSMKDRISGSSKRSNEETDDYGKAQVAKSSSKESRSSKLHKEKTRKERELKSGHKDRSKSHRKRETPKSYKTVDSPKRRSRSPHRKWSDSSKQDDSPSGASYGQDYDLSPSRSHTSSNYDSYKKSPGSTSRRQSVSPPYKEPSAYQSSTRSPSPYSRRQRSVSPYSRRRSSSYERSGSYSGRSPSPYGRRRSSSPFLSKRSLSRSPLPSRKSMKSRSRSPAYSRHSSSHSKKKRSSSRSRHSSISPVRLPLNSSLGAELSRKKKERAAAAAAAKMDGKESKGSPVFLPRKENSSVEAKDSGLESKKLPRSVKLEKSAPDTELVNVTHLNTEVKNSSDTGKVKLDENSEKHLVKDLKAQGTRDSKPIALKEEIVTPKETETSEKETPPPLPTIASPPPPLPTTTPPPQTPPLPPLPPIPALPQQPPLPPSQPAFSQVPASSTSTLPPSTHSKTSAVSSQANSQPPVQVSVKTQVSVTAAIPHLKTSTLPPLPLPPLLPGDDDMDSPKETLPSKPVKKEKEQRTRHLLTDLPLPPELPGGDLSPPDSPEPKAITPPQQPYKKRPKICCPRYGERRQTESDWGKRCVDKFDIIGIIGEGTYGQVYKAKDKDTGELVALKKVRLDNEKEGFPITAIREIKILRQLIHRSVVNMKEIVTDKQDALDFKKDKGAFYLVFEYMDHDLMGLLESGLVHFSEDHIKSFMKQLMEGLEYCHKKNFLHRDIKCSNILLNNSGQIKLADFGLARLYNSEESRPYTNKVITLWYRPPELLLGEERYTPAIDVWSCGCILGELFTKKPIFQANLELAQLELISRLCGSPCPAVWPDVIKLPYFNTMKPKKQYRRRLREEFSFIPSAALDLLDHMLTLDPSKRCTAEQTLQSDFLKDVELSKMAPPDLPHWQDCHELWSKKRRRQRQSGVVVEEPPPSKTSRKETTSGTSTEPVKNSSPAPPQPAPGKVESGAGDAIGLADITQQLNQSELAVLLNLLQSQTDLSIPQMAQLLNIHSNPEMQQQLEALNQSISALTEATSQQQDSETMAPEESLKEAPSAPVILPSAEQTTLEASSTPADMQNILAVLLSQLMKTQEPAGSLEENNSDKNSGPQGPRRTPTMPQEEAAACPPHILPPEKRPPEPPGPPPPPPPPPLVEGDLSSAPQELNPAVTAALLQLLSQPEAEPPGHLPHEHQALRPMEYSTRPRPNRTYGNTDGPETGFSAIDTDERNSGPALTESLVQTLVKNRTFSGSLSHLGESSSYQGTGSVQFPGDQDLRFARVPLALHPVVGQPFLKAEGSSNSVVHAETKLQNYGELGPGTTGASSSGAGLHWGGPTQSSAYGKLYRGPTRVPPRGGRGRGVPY

[15] = molecular target: T1, Cyclin-dependent kinase 12; conditions: dose 2000.0 nM
Target sequence in this assay (Q9NYV4 whole entry, looked up): as the sequence (Q9NYV4 whole entry) above
Description: Inhibition of CDK12 (unknown origin) at 2000 nM relative to control

[16] = molecular target: T1, Cyclin-dependent kinase 12; conditions: dose 200.0 nM
Target sequence in this assay (Q9NYV4 whole entry, looked up): as the sequence (Q9NYV4 whole entry) above
Description: Inhibition of CDK12 (unknown origin) at 200 nM relative to control

[17] = molecular target: T1, Cyclin-dependent kinase 12; conditions: dose 20.0 nM
Target sequence in this assay (Q9NYV4 whole entry, looked up): as the sequence (Q9NYV4 whole entry) above
Description: Inhibition of CDK12 (unknown origin) at 20 nM relative to control

[18] = molecular target: T1, Cyclin-dependent kinase 12; experiment: Inhibition of full length FLAG-tagged CDK12 (unknown origin) at Cys1039 residue expressed in HEK293T cells at 50 uM incubated for 2 hrs by mass spectrometry analysis; assay type: cell-based
Target sequence in this assay (Q9NYV4 whole entry, looked up): as the sequence (Q9NYV4 whole entry) above

[19] = molecular target: T1, Cyclin-dependent kinase 12; experiment: Inhibition of CDK12 in human MDA-MB-231 cells incubated for 4 hrs by immunoblotting analysis; assay type: cell-based
Target sequence in this assay (Q9NYV4 whole entry, looked up): as the sequence (Q9NYV4 whole entry) above

[20] = molecular target: T1, Cyclin-dependent kinase 12; experiment: Inhibition of CDK12 in human MDA-MB-231 cells incubated for 4 hrs; assay type: cell-based
Target sequence in this assay (Q9NYV4 whole entry, looked up): as the sequence (Q9NYV4 whole entry) above

[21] = molecular target: T1, Cyclin-dependent kinase 12; experiment: Binding affinity to CDK12 (714 to 1069 residues) in HEK293T cells assessed as increase in thermal stability at 5 uM measured for 6 hrs by cellular thermal shift assay; assay type: cell-based
[22] = molecular target: T1, Cyclin-dependent kinase 12; experiment: Inhibition of CDK12 in human MDA-MB-231 cells at 100 nM measured upto 6 hrs by Western blot analysis; assay type: cell-based
[23] = molecular target: T1, Cyclin-dependent kinase 12; experiment: Irreversible inhibition of CDK12 in human MDA-MB-231 cells at 100 nM pretreated with compound for 4 hrs followed by compound washout measured after 6 hrs; assay type: cell-based
[24] = molecular target: T1, Cyclin-dependent kinase 12; experiment: Inhibition of CDK12 in human MDA-MB-231 cells pretreated with compound for 4 hrs followed by compound washout measured after 3 days; assay type: cell-based
Target sequence in this assay (Q9NYV4 whole entry): as above

[25] = molecular target: T1, Cyclin-dependent kinase 12; experiment: Inhibition of CDK12 in human MDA-MB-231 cells incubated for 10 hrs; assay type: cell-based
Target sequence in this assay (Q9NYV4 whole entry): as above

[26] = molecular target: T1, Cyclin-dependent kinase 12; experiment: Inhibition of CDK12 in human MDA-MB-231 cells assessed as reduction in RNA Pol II CTD level at Ser2 residue at 2000 nM incubated for 4 hrs by Western blot analysis; assay type: cell-based
[27] = molecular target: Cyclin-dependent kinase 13 (Homo sapiens, UniProt Q14004); experiment: Inhibition of CDK13 (unknown origin) using GSRTPMY-NH2 as substrate in presence of ATP by ADP-glo assay
Cyclin-dependent kinase 13, sequence (Q14004 whole entry): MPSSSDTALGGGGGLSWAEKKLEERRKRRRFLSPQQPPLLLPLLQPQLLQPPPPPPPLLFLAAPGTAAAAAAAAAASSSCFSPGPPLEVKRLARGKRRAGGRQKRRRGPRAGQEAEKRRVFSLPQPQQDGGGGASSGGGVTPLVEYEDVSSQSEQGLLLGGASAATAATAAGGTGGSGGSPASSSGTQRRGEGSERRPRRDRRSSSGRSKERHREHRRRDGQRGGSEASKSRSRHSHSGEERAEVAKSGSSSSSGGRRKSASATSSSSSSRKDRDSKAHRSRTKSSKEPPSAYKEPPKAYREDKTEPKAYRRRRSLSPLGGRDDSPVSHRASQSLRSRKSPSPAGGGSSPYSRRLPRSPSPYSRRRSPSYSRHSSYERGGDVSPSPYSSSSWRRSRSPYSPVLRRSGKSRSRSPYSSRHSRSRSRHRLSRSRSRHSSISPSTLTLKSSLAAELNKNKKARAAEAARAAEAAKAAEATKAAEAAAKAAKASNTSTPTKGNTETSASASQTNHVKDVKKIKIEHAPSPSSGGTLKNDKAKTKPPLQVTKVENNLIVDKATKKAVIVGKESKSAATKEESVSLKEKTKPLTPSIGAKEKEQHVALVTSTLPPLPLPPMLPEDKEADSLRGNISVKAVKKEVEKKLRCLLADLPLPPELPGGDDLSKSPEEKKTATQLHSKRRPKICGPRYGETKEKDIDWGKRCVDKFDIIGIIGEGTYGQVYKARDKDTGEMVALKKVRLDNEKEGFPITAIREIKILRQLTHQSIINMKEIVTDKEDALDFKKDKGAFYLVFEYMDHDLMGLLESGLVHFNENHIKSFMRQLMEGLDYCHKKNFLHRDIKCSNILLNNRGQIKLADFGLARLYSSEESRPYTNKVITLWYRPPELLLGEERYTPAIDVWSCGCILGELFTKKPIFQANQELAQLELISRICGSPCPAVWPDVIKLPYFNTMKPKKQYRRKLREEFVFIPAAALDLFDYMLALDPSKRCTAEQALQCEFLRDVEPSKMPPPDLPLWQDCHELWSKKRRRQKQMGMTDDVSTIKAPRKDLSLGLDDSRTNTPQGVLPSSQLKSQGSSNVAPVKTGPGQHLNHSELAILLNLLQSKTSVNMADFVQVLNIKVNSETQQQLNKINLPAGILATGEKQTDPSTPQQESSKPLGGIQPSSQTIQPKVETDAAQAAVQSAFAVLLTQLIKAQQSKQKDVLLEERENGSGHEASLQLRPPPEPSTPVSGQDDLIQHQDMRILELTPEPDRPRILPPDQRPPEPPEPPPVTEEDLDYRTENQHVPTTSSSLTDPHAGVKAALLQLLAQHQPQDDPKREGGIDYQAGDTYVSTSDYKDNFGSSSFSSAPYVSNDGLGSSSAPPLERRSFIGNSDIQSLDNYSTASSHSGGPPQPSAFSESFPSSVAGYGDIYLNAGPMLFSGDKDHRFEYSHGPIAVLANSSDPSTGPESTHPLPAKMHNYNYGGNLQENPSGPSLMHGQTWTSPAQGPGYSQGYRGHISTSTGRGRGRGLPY

[28] = molecular target: T1, Cyclin-dependent kinase 12; conditions: MDA-MB-231, dose 200.0 nM, time 4.0 hrs
[29] = molecular target: T1, Cyclin-dependent kinase 12; experiment: Irreversible inhibition of CDK12 in human MDA-MB-231 cells at 10 uM pretreated with compound for 4 hrs followed by compound washout measured after 6 hrs; assay type: cell-based
[30] = molecular target: T1, Cyclin-dependent kinase 12; experiment: Inhibition of CDK12 in human MDA-MB-231 cells assessed as reduction in RNA Pol II CTD level at Ser2 residue at 10 uM incubated for 4 hrs by Western blot analysis; assay type: cell-based

EC50 (MDA-MB-231 [1]): 0.126 µM
EC50 (MDA-MB-468): 0.0283 µM
SMILES: C=CC(=O)Nc1cccc(-c2ccc3nc(CC(=O)Nc4cc(C5CC5)[nH]n4)cn3n2)c1

EC50 (MDA-MB-231 [1]): 0.0143 µM
EC50 (MDA-MB-468): 0.0101 µM
SMILES: C=CC(=O)Nc1ccc(-c2ccc3nc(CC(=O)Nc4cc(C5CC5)[nH]n4)cn3n2)cc1F
Activity (MDA-MB-231 [2]): Active
Activity (MDA-MB-231 [3]): Active
Activity (MDA-MB-231 [4]): Active
Activity (MDA-MB-231 [5]): Active
Activity (MDA-MB-231 [6]): Active
Activity (MDA-MB-231 [7]): Active
Activity (MDA-MB-231 [8]): Active
Activity (MDA-MB-231 [9]): Active
Activity (MDA-MB-231 [10]): Active
Activity (MDA-MB-231 [11]): Active
Activity (MDA-MB-231 [12]): Active

DC50 [13]: 0.00038 µM
SMILES: CCN(CC)CC(=O)N1CCN(c2nc(NCc3nc4cc(Cl)c(Cl)cc4[nH]3)c3ncn(CC)c3n2)CC1

EC50 (MDA-MB-231 [1]): 2.86 µM
SMILES: C=CC(=O)Nc1ccc(-c2ccc3nc(CC(=O)Nc4cc(C(C)(C)C)on4)cn3n2)cc1F

IC50 [14]: 0.0342 µM
inhibition [15]: 92.1%
inhibition [16]: 80.7%
inhibition [17]: 29.9%
EC50 (MDA-MB-231 [1]): 0.12 µM
EC50 (MDA-MB-468): 0.108 µM
SMILES: C=CC(=O)Nc1ccc(-c2ccc3nc(CC(=O)Nc4ncc(CC)s4)cn3n2)cc1F

EC50 (MDA-MB-231 [1]): 3.15 µM
EC50 (MDA-MB-468): 1.16 µM
SMILES: C=CC(=O)Nc1ccc(-c2ccc3nc(CC(=O)Nc4nc(C)c(C)s4)cn3n2)cc1F

EC50 (MDA-MB-231 [1]): 0.0759 µM
EC50 (MDA-MB-468): 0.0362 µM
SMILES: C=CC(=O)Nc1c(C)cc(-c2ccc3nc(CC(=O)Nc4cc(C5CC5)[nH]n4)cn3n2)cc1C

EC50 (MDA-MB-468): 7.26 µM
SMILES: C=CC(=O)Nc1ccc(-c2ccc3nc(CC(=O)Nc4nc(C5CC5)cs4)cn3n2)cc1F

EC50 (MDA-MB-231 [1]): 2.93 µM
SMILES: C=CC(=O)Nc1ccc(-c2ccc3nc(CC(=O)Nc4cc(C)no4)cn3n2)cc1F

EC50 (MDA-MB-468): 4.52 µM
SMILES: C=CC(=O)Nc1ccc(-c2ccc3nc(CC(=O)Nc4cc(C)ns4)cn3n2)cc1F

EC50 (MDA-MB-231 [1]): 0.0207 µM
EC50 (MDA-MB-468): 0.0203 µM
SMILES: Cn1cc(-n2cnc3c(NCc4nc5cc(Cl)c(Cl)cc5[nH]4)nc(N4CCOCC4)nc32)cn1

EC50 (MDA-MB-231 [1]): 0.0303 µM
EC50 (MDA-MB-468): 0.0135 µM
SMILES: C=CC(=O)Nc1ccc(-c2ccc3nc(CC(=O)Nc4cc(C5CC5)[nH]n4)cn3n2)cc1C

IC50 [14]: 0.0155 µM
inhibition [18]: Active
inhibition [19]: Active
inhibition [20]: Active
Activity [21]: Active
inhibition [22]: Active
inhibition [23]: Active
EC50 [24]: 0.04 µM
EC50 [25]: 0.00538 µM
inhibition [26]: Active
IC50 [27]: 0.0122 µM
inhibition [15]: 92.5%
inhibition [16]: 93%
inhibition [17]: 73.8%
inhibition [28]: 100%
EC50 (MDA-MB-231 [1]): 0.005 µM
EC50 (MDA-MB-468): 0.006 µM
SMILES: C=CC(=O)Nc1ccc(-c2ccc3nc(CC(=O)Nc4cc(C5CCC5)[nH]n4)cn3n2)cc1F
Activity (MDA-MB-231 [2]): Active
Activity (MDA-MB-231 [3]): Active
Activity (MDA-MB-231 [4]): Active
Activity (MDA-MB-231 [5]): Active
Activity (MDA-MB-231 [6]): Active
Activity (MDA-MB-231 [7]): Active
Activity (MDA-MB-231 [8]): Active
Activity (MDA-MB-231 [9]): Active
Activity (MDA-MB-231 [10]): Active
Activity (MDA-MB-231 [11]): Active
Activity (MDA-MB-231 [12]): Active

EC50 (MDA-MB-231 [1]): 0.131 µM
EC50 (MDA-MB-468): 0.197 µM
SMILES: C=CC(=O)Nc1c(F)cc(-c2ccc3nc(CC(=O)Nc4cc(C5CC5)[nH]n4)cn3n2)cc1F

EC50 (MDA-MB-231 [1]): 0.0673 µM
EC50 (MDA-MB-468): 0.0364 µM
SMILES: C=CC(=O)Nc1ccc(-c2ccc3nc(CC(=O)Nc4cc(C5CC5)[nH]n4)cn3n2)cc1

IC50 [14]: 0.0141 µM
inhibition [15]: 93.1%
inhibition [16]: 92.7%
inhibition [17]: 59.7%
EC50 (MDA-MB-231 [1]): 0.0263 µM
EC50 (MDA-MB-468): 0.0069 µM
SMILES: CN(C)C/C=C/C(=O)Nc1ccc(C(=O)N2CCC[C@@H](Nc3ncc(Cl)c(-c4c[nH]c5ccccc45)n3)C2)cc1

EC50 (MDA-MB-231 [1]): 0.352 µM
EC50 (MDA-MB-468): 0.504 µM
SMILES: C=CC(=O)Nc1ccccc1-c1ccc2nc(CC(=O)Nc3cc(C4CC4)[nH]n3)cn2n1

EC50 (MDA-MB-231 [1]): 0.219 µM
EC50 (MDA-MB-468): 0.354 µM
SMILES: C=CC(=O)Nc1ccc(-c2ccc3nc(CC(=O)Nc4ncc(C(C)(C)C)s4)cn3n2)cc1F

EC50 (MDA-MB-231 [1]): 0.0464 µM
EC50 (MDA-MB-468): 0.0409 µM
SMILES: C=CC(=O)Nc1ccc(-c2ccc3nc(CC(=O)Nc4cc(C5CC5)[nH]n4)cn3n2)cc1OC

inhibition [29]: Active
inhibition [30]: Active
SMILES: CCC(=O)Nc1ccc(-c2ccc3nc(CC(=O)Nc4cc(C5CCC5)[nH]n4)cn3n2)cc1F

EC50 (MDA-MB-231 [1]): 3.04 µM
EC50 (MDA-MB-468): 1.3 µM
SMILES: C=CC(=O)Nc1ccc(-c2ccc3nc(CC(=O)Nc4nc(C)cs4)cn3n2)cc1F

EC50 (MDA-MB-231 [1]): 0.0849 µM
EC50 (MDA-MB-468): 0.0479 µM
SMILES: C=CC(=O)Nc1ccc(-c2ccc3nc(CC(=O)Nc4cc(C5CC5)[nH]n4)cn3n2)cc1Cl

EC50 (MDA-MB-231 [1]): 0.424 µM
EC50 (MDA-MB-468): 0.608 µM
SMILES: C=CC(=O)Nc1ccc(-c2ccc3nc(CC(=O)Nc4ncc(C(C)C)s4)cn3n2)cc1F
